Measured values from paper doi:10.1101/2023.09.11.557162v4 (biorxiv, 2025).
Like-named read-outs stand apart in the source and are kept apart here.

Key:
Experiment in all cases: DNA-dependent ATPase assay
Assay type in all cases: biochemical
SMARCA4 = SMARCA4 (Homo sapiens, UniProt P51532)
CHD4 = CHD4 (Homo sapiens, UniProt Q14839)
SMARCA2 = SMARCA2 (Homo sapiens, UniProt P51531)
Sequence of SMARCA2 (P51531 whole entry): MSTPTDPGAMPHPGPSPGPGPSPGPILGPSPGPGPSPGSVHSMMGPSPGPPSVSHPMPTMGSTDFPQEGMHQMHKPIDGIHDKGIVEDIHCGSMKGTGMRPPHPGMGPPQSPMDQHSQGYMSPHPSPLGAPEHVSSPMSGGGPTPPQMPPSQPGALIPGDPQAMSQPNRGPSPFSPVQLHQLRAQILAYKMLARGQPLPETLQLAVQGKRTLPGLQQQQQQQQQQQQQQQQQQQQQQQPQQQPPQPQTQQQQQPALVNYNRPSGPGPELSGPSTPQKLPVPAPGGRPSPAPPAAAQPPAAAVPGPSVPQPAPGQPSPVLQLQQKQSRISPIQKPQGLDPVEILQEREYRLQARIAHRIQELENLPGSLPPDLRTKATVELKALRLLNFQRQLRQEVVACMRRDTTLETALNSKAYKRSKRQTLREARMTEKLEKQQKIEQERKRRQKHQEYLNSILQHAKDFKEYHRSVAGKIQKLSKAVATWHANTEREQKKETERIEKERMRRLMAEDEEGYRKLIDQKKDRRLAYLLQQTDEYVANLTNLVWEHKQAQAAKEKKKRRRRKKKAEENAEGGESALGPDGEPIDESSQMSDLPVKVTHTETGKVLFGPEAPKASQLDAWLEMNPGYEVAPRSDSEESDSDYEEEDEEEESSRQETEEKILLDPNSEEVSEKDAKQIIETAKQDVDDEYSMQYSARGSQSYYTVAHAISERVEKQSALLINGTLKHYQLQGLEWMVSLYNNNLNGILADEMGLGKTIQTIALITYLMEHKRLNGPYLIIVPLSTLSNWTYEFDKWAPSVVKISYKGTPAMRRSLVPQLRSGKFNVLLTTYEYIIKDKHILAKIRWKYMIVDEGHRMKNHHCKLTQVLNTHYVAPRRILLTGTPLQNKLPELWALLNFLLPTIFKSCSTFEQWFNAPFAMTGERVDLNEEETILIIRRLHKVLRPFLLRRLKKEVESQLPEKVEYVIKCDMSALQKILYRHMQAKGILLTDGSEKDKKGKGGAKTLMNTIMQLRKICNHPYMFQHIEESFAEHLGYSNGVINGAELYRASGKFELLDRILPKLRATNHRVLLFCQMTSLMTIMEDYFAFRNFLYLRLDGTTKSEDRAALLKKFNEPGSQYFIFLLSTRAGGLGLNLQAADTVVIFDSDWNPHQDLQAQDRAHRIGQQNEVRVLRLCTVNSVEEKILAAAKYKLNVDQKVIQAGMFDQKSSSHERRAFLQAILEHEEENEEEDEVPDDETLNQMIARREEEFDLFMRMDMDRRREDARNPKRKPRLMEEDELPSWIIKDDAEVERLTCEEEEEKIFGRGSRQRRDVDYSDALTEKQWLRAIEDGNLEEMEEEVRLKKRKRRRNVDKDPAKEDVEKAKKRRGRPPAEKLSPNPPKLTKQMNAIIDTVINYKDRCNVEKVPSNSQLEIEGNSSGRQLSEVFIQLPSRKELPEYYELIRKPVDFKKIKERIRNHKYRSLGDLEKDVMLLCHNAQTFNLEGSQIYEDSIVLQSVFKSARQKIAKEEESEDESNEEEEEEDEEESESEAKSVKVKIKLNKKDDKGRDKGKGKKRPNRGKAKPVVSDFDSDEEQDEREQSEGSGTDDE

Sequence of SMARCA4 (P51532 whole entry): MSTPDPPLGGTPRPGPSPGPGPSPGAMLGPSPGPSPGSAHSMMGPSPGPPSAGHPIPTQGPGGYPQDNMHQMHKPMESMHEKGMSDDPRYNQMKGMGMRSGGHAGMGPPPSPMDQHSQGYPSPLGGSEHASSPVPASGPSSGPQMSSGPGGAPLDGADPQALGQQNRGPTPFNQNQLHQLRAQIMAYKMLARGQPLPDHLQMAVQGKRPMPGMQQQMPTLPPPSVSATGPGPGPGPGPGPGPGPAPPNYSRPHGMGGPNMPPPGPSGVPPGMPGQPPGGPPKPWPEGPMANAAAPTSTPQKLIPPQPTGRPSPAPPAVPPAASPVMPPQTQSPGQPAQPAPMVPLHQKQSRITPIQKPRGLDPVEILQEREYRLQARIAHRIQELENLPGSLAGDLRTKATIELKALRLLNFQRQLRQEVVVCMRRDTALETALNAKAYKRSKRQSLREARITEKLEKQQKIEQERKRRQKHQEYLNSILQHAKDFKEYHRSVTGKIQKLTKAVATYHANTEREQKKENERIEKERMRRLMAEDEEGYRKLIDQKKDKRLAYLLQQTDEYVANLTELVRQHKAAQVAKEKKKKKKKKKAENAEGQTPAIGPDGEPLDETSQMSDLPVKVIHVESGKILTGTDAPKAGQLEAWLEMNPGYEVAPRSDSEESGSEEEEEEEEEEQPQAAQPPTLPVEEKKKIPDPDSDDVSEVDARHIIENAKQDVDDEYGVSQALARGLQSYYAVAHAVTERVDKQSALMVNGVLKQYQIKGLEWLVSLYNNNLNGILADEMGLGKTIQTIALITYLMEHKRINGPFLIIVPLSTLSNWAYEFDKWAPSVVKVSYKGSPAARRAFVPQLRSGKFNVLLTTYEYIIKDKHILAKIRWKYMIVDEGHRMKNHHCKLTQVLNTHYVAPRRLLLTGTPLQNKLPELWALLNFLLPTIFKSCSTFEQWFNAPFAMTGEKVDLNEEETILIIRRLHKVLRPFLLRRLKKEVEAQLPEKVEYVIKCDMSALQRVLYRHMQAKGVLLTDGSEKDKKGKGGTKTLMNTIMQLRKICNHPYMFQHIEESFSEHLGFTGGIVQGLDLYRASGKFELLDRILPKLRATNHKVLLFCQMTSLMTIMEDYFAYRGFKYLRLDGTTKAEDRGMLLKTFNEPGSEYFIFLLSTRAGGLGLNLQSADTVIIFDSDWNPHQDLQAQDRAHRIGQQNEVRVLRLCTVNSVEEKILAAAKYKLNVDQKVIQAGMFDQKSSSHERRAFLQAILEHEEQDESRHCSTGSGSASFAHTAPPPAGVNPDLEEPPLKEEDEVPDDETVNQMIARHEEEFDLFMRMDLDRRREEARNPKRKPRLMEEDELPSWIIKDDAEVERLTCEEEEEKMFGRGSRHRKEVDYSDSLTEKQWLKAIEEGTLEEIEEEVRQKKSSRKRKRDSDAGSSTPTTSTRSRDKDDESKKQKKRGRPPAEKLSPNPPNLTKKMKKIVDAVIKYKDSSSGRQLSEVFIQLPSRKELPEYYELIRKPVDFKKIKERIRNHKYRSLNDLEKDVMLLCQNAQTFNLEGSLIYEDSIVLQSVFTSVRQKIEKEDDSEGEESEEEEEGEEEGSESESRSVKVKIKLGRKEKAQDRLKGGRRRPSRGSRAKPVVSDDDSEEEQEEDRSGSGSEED
Sequence of CHD4 (Q14839 whole entry): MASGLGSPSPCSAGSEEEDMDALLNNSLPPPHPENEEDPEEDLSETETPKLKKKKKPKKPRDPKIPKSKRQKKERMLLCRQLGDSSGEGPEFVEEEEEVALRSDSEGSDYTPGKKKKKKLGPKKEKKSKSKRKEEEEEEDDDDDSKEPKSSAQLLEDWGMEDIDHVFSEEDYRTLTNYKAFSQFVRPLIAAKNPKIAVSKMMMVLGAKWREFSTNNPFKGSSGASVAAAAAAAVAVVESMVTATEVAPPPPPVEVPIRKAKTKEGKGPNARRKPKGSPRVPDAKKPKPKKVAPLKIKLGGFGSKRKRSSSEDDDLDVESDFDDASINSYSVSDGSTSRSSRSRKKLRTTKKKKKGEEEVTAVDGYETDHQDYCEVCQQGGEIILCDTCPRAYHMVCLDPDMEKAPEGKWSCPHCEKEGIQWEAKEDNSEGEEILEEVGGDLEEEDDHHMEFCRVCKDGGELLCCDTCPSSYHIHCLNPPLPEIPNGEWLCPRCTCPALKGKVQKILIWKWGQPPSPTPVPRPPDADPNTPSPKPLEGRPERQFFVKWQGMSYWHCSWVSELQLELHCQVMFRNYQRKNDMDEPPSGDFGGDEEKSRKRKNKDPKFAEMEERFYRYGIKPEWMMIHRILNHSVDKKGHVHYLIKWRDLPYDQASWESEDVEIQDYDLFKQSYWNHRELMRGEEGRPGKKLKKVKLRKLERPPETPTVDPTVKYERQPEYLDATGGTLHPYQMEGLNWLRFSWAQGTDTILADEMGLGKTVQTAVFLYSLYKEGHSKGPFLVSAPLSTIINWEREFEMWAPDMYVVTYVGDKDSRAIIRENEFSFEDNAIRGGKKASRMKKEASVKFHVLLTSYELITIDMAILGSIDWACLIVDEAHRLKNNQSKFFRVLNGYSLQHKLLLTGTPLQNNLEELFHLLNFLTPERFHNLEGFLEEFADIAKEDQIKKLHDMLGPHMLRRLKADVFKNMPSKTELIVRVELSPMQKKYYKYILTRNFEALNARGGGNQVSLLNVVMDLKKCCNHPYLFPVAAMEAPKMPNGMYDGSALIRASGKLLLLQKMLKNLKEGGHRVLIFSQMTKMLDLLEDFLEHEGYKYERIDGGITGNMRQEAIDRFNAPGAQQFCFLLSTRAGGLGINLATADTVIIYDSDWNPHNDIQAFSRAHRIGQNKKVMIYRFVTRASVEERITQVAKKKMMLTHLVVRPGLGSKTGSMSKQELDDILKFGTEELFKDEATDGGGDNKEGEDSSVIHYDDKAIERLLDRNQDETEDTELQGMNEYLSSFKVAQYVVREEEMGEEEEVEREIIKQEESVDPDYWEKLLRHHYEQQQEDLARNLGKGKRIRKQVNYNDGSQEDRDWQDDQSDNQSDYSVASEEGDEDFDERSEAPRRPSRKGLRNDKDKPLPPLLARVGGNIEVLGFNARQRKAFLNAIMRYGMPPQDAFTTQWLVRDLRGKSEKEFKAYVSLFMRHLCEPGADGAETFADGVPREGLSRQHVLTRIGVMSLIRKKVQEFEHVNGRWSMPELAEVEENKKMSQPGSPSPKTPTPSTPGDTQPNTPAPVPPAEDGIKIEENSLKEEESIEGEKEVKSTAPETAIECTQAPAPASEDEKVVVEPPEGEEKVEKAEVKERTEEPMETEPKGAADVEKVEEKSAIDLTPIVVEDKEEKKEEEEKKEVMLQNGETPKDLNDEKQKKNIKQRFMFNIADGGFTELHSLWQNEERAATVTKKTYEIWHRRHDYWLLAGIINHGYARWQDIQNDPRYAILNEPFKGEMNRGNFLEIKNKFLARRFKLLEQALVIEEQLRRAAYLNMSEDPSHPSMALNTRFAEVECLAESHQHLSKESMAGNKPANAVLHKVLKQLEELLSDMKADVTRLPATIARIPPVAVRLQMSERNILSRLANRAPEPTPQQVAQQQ

| IC50 (SMARCA4; DNA-stimulated ATPase) [nM] | IC50 (CHD4) [nM] | IC50 (SMARCA2) [nM] | IC50 (SMARCA4) [nM] | Compound |
| --- | --- | --- | --- | --- |
| 26 ± 6 | > 200000 | 13 ± 3 | – | COC[C@H](NC(=O)c1ccn(S(C)(=O)=O)c1)C(=O)Nc1nc(-c2cccc(-c3ccn(C)n3)c2)cs1 [FHT-2344] |
| – | – | 2500 ± 500 | 6040 ± 1040 | CN(C)S(=O)(=O)c1cccc(C(=O)NCC(=O)Nc2nc(-c3ccccc3)cs2)c1 [FHT-185] |
